Patent US9833486B2, “Compositions comprising selenium and use of same for the treatment and prevention of disease or conditions associated with mitochondrial dysfunction” (ALLTECH, INC., priority 2013, dated 2017)
“And” between values parts separate entries of the source, which are not always exact repeats. Identical values can stand only once. “Also recorded” adds a separate entry of the source. *1 amine or outer side, *2 acyl side, *3 side chain or, on linkers, in order; H or OH if unused. Where a SMILES comes first, the peptide text is derived from it. Bridges are numbered along the chain shown (N, C = ends). Roman numbers before positions name the chains, in order. [ ]: non-standard residue; d: D form. γGlu = O=C(O)[C@H](CCC(=O)[*:2])N[*:1]; Sec = N[C@@H](C[SeH])C(=O)O

Legend:
[1] = Oxygen radical absorbance capacity (ORAC) antioxidant assay; conditions: Trolox Equivalents; singly or in combination
Procedure: Briefly, samples of selenium containing compounds (e.g., identified in Example 1) were analyzed using the Trolox assay kit, according to the manufacturer's instructions. Compounds were tested singly or in combination (at concentrations ranging from 0.05 to 5 μM) to examine for potential synergies, antagonisms or purely additive effects.

[2] = test system: rat brain purified mitochondria; experiment: Mitochondrial bioenergetics, oxygen consumption rates (Seahorse flux analyzer); type: biochemical; set-up: key to Trend of effect on mitochondrial bioenergetics: 1: Positive Trend; 2: Positive/Negative trend; 3: Negative Trend; 4: No Change; conditions: for Trend of effect on mitochondrial bioenergetics: Table 7; for STATE V (State VFCCP, complex I dependent maximum respiratory capacity) / STATE Vsucc (complex II dependent maximum respiratory capacity) / STATE III (OCR, ATP synthesis): rat brain purified mitochondria 5 μg/well; for STATE V (State VFCCP, complex I dependent maximum respiratory capacity) / STATE Vsucc (complex II dependent maximum respiratory capacity) / STATE III (OCR, ATP synthesis) / STATE III % change / STATE V % change / STATE Vsucc % change / Effect on mitochondrial activity / bioenergetics profile (in words): 500 ppb; for STATE V (State VFCCP, complex I dependent maximum respiratory capacity): CTRL 182.1; for STATE Vsucc (complex II dependent maximum respiratory capacity): CTRL 350.1; for STATE III (OCR, ATP synthesis): CTRL 432.6; for STATE III % change / STATE V % change / STATE Vsucc % change: vs control; for STATE III % change / STATE V % change / STATE Vsucc % change / Effect on mitochondrial activity / bioenergetics profile (in words): Seahorse
Procedure: Mitochondria isolated from rat brain were chosen for this purpose for a number of reasons, including a) the ease with which mitochondria can be isolated from soft tissue, such as brain and b) the fact that brain tissue has a high demand for glucose and oxygen.
Experiments were conducted as follows: a variety of concentrations of selenium containing compounds were tested ranging from low (50 ppb), mid (500 ppb) and high (1 ppm). […] Adult rat brain ficoll purified mitochondria were isolated and incubated with the individual selenium containing compounds for 30 minutes at 37 C prior to being loaded into a Seahorse Biosciences flux analyzer in triplicate. OCR (Oxygen Consumption Rates) parameters were measured in three respiratory states including ATP synthesis (State III), Complex I dependent (NADH-driven) Maximum Respiratory Capacity (State VFCCP) and Complex II (FADH-driven) dependent Maximum Respiratory Capacity (State Vsucc). Sea Horse assay was performed as described (See, e.g., Sauerbeck et al., J Neurosci Methods. 2011 May 15; 198(1): 36-43; Seahorse XF, Seahorse Bioscience Inc).

[3] = test system: mice; experiment: Expression of oxidative phosphorylation (OXPHOS) molecules in liver; type: in vivo, mouse
Procedure: Utilizing the animal model described in Example 2, experiments were conducted to analyze the expression of molecules that regulate oxidative phosphorylation (OXPHOS) in the liver of subjects administered a composition comprising selenium.

[4] = test system: pyruvate dehydrogenase complex (PDHC); experiment: PDHC enzyme activity in isolated cortical mitochondria; type: biochemical, rat
Procedure: (§1) In order to measure pyruvate dehydrogenase complex (PDHC) activity as well as mitochondrial Complex I activity, cortical mitochondria were isolated from adult SD rats using a ficoll gradient method. Methylselenoadenosine was tested at four concentration ranges (0, 50, 500 and 1000 PPB). All assays were done in triplicate with co-incubation of the individual compounds with mitochondria (60 μg mitochondrial protein/well) in 100 μl assay system using standard techniques in a 96-well fluorescence plate reader.

[5] = test system: mitochondrial Complex I; experiment: Mitochondrial Complex I activity in isolated cortical mitochondria; type: biochemical, rat; conditions: 0, 50, 500, 1000 PPB
Procedure: as §1

[6] = test system: mitochondria; experiment: Mitochondrial respiration by oxytherm (Clark-type electrode); type: biochemical, rat; conditions: 60 μg mitochondrial protein, 500 ppb, 30 minutes
Procedure: The bioactivities of selenium containing peptide LVSe-MR (C22H44N7O5Se) (#6) and methylselenoadenosine (C11H15N5O3Se) (#9) were analyzed utilizing oxytherm (Clark-type electrode) (See, e.g., Chance and Williams, J Biol Chem, 1955, 217, 383-393; Sullivan et al., J. Bioenerg. Biomembr. 36, 353-356.). Oxytherm analysis allows the determination of oxygen uptake or evolution measurements across a broad range of applications including mitochondrial and cellular respiration. For this experiment, 60 μg mitochondrial protein was co-incubated with either compound LVSe-MR (C22H44N7O5Se) or methylselenoadenosine (500 ppb) or their corresponding equivalent concentrations of respective controls (LVMR and methylthioadenosine, respectively) for 30 minutes prior to injection into the oxytherm chamber. Mitochondrial activity (measured and presented as the rate of mitochondrial respiration observed as % change in nmols O2/min/mg of mitochondrial protein) was measured in the presence of each compound.

[7] = test system: Complex IV; experiment: Complex IV enzyme activity in isolated cortical mitochondria; type: biochemical, rat; conditions: 0, 50, 500, 1000 PPB

Row | Molecule | TE Value [1] | Trend of effect on mitochondrial bioenergetics [2] | STATE V (State VFCCP, complex I dependent maximum respiratory capacity) [2] | STATE Vsucc (complex II dependent maximum respiratory capacity) [2] | STATE III (OCR, ATP synthesis) [2] | STATE III % change [2] | STATE V % change [2] | STATE Vsucc % change [2] | Effect on mitochondrial activity / bioenergetics profile (in words) [2] | other results
1 | C[Se]CC[C@H](N)C(=O)O [#4, L-Selenomethionine] | 1.228 TE |  |  |  |  |  |  |  |  | 
2 | N[C@@H](CCC(=O)N[C@@H](C[Se][Se]C[C@H](NC(=O)CC[C@H](N)C(=O)O)C(=O)NCC(=O)O)C(=O)NCC(=O)O)C(=O)O [#8, Selenoglutathione dimer] (I: γGlu-[Sec]-Gly-OH / II: γGlu-[Sec]-Gly-OH; diselenide I:1-II:1) |  | #8^4 | 192.3 | 371.0 | 424.0 | −2.1% | 5.7% | 6.0% |  | 
3 | N[C@@H](CCC(=O)O)C(=O)N[C@@H](CS)C(=O)O [#30, Glutamylcysteine, reference compound] (H-Glu-Cys-OH) |  | #30^2 | 153.8 | 305.4 | 423.2 | −2.3% | −15.5% | −12.7% |  | 
4 | C[Se]CC[C@H](N)C(=O)O [selenomethionine] |  |  |  |  |  |  |  |  |  | expression of ATP synthase [3]: significant increase; expression of ATPase inhibitory factor 1 [3]: significantly reduced; expression of ATPase, H+ transporting lysosomal, V1 subunit H [3]: significantly reduced; expression of ATPase, H+ transporting, V1 subunit A [3]: significantly reduced; expression of cytochrome c oxidase, subunit Va [3]: significant increase; regulation of liver specific mitochondrial activity, compared with selenium enriched yeast [3]: significantly less effective
5 | Glutamylselenocysteine dimer [#10] |  | #10^3 | 112.7 | 254.4 | 352.1 | −18.7% | −38.1% | −27.3% | negative effect | decreased ATP synthesis (State III) ([2]; decrease vs control): ~19%
6 | Methylselenoadenosine [#9] | 0.722 TE | #9^1 | 210.3^1 | 437.1^1 | 507.8^1 | 17.3% and 17.3^1% | 15.6% and 15.6^1% | 25% and 24.9^1% | positive increases in all three states of respiration; also recorded: remarkably increase mitochondrial bioenergetics profiles | PDHC activity (in words) ([4]; 0, 50, 500, 1000 PPB): increased; enhanced PDHC enzyme activity ([4]; 0-1000 PPB, depending upon the concentration, p<0.05 at 1000 PPB): 30-57%; Complex I activity (in words) [5]: increased; State III increase compared to control [6]: 29.9%; State VFCCP increase compared to control [6]: 17.3%; State Vsucc increase compared to control [6]: 15.3%; Complex IV enzyme activity (in words) [7]: No changes
